Drawing on US8003800B2, “Thiophene derivatives as S1P1/EDG1 receptor agonists” (Actelion Pharmaceuticals Ltd., priority 2006, dated 2011), this text covers EC50 and Lymphocyte counts for eleven compounds.

The target in test [1] is recombinant human S1P1 receptor (Homo sapiens, UniProt P21453). In words: GTPγS assay to determine EC50 values. It is filed as biochemical. The conditions noted are these: 35S-GTPγS binding, membrane preparations of CHO cells expressing recombinant human S1P1 receptor, pH 7.4. On the procedure:
GTPγS binding assays are performed in 96 well microtiter plates (Nunc, 442587) in a final volume of 200 μl, using membrane preparations of CHO cells expressing recombinant human S1P1 receptor. Assay conditions are 20 mM Hepes (Fluka, 54461), 100 mM NaCl (Fluka, 71378), 5 mM MgCl2 (Fluka, 63064), 0.1% BSA (Calbiochem, 126609), 1 μM GDP (Sigma, G-7127), 2.5% DMSO (Fluka, 41644), […] ^35S-GTPγS (Amersham Biosciences, SJ1320). The pH is 7.4. Test compounds are dissolved and diluted in 100% DMSO and pre-incubated at room temperature for 30 min in 150 μl of the above assay buffer, in the absence of ^35S-GTPγS. After addition of 50 μl of ^35S-GTPγS, the assay is incubated for 1 h at rt. The assay is terminated by transfer of the reaction mixture to a Multiscreen plate (Millipore, MAHFC1H60) using a cell harvester from Packard Biosciences, and the plates are washed with ice-cold 10 mM Na2HPO4/NaH2PO4 (70%/30%), dried, sealed at the bottom and, after addition of 25 μl MicroScint20 (Packard Biosciences, order #6013621), sealed on the top. Membrane-bound ^35S-GTPγS is measured with a TopCount from Packard Biosciences.
EC50 is the concentration of agonist inducing 50% of the maximal specific ^35S-GTPγS binding. Specific binding is determined by subtracting non-specific binding from maximal binding. Maximal binding is the amount of cpm bound to the Multiscreen plate in the presence of 10 μM of S1P. Non-specific binding is the amount of binding in the absence of an agonist in the assay.
The EC50 values were determined according to the method described above: […]

The next test has as its system circulating lymphocytes. Put plainly: Assessment of in vivo efficacy: circulating lymphocytes after oral administration. On the set-up: unit not given here. The conditions noted are these: 6 h after oral administration of 10 mg/kg to normotensive male Wistar rats, as compared to vehicle-treated group; mean±SEM. On the procedure:
The efficacy of the compounds of Formula (I) is assessed by measuring the circulating lymphocytes after oral administration of 3 to 30 mg/kg of a compound of Formula (I) to normotensive male Wistar rats. The animals are housed in climate-controlled conditions with a 12 h-light/dark cycle, and have free access to normal rat chow and drinking water. Blood is collected before and 3, 6 and 24 h after drug administration. Full blood is subjected to hematology using Advia Hematology system (Bayer Diagnostics, Züurich, Switzerland).
All data are presented as mean±SEM. Statistical analyses are performed by analysis of variance (ANOVA) using Statistica (StatSoft) and the Student-Newman-Keuls procedure for multiple comparisons. The null hypothesis is rejected when p<0.05.

Chain of recombinant human S1P1 receptor (P21453 whole entry): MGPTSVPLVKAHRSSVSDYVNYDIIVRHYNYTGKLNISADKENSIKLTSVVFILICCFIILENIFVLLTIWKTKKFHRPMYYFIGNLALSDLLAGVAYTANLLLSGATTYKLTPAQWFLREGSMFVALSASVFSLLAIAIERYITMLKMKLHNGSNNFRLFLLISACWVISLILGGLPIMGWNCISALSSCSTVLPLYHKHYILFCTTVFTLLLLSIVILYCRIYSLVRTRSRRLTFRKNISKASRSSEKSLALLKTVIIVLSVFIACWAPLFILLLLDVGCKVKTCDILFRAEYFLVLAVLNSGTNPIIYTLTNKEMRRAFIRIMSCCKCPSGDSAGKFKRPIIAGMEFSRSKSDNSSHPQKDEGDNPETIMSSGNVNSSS

With `Cc1cc(CCC(=O)c2scc(CC(C)C)c2CC(C)C)cc(C)c1O` [Example 7, 1-(3,4-diisobutyl-thiophen-2-yl)-3-(4-hydroxy-3,5-dimethyl-phenyl)-propan-1-one], the EC50 in test [1] was 8.4 nM.
In the test on circulating lymphocytes, `COc1cc(OCC(O)CNC(=O)CO)ccc1-c1noc(-c2cc(CC(C)C)c(C)s2)n1` (stereo not drawn) [Example 46, 2-hydroxy-N-(2-hydroxy-3-{4-[5-(4-isobutyl-5-methyl-thiophen-2-yl)-[1,2,4]oxadiazol-3-yl]-3-methoxy-phenoxy}-propyl)-acetamide] gave a Lymphocyte counts of −77 ± 3.
Turning to `CCc1cc(-c2noc(-c3cc(CC(C)C)c(C)s3)n2)cc(C)c1CCC(=O)NCCO` [Example 58, 3-{2-ethyl-4-[5-(4-isobutyl-5-methyl-thiophen-2-yl)-[1,2,4]oxadiazol-3-yl]-6-methyl-phenyl}-N-(2-hydroxy-ethyl)-propionamide], in test [1], the 50% effective concentration (EC50) came out at 7.5 nM.
Same read-out and setting: to `CCCc1c(CC(C)C)csc1C(=O)CCc1cc(C)c(OC[C@@H](O)CO)c(C)c1` [Example 8, 3-[4-((S)-2,3-dihydroxy-propoxy)-3,5-dimethyl-phenyl]-1-(4-isobutyl-3-propyl-thiophen-2-yl)-propan-1-one] belongs 7.5 nM; to `CCc1cc(-c2noc(-c3cc(CC(C)C)c(C)s3)n2)cc(C)c1OCC(O)CNC(=O)CO` (racemic) [Example 16, rac-N-(3-{2-Ethyl-4-[5-(4-isobutyl-5-methyl-thiophen-2-yl)-[1,2,4]oxadiazol-3-yl]-6-methyl-phenoxy}-2-hydroxy-propyl)-2-hydroxy-acetamide], 5.5 nM; to `Cc1cc(-c2noc(-c3scc(CC(C)C)c3C)n2)cc(C)c1OC[C@@H](O)CNC(=O)CO` [Example 70, (S)-2-Hydroxy-N-(2-hydroxy-3-{4-[5-(4-isobutyl-3-methyl-thiophen-2-yl)-[1,2,4]oxa-diazol-3-yl]-2,6-dimethyl-phenoxy}-propyl)-acetamide], 1.1 nM.
For `CCc1cc(-c2nnc(-c3cc(CC(C)C)c(C)s3)o2)cc(C)c1OC[C@@H](O)CNC(=O)CO` [Example 64, N—((S)-3-{2-ethyl-4-[5-(4-isobutyl-5-methyl-thiophen-2-yl)-[1,3,4]oxadiazol-2-yl]-6-methyl-phenoxy}-2-hydroxy-propyl)-2-hydroxy-acetamide], in the test on circulating lymphocytes, the Lymphocyte counts is −66 ± 1.
As to `Cc1cc(-c2noc(-c3scc(CC(C)C)c3C)n2)cc(C)c1OCC(O)CNC(=O)CO` (racemic) [Example 23, rac-2-Hydroxy-N-(2-hydroxy-3-{4-[5-(4-isobutyl-3-methyl-thiophen-2-yl)-[1,2,4]oxadiazol-3-yl]-2,6-dimethyl-phenoxy}-propyl)acetamide], the Lymphocyte counts in the test on circulating lymphocytes is listed as −73 ± 2.
As for `CCCc1c(CC(C)C)csc1C(=O)/C=C/c1cc(C)c(O)c(C)c1` [Example 3, 3-(4-Hydroxy-3,5-dimethyl-phenyl)-1-(4-isobutyl-3-propyl-thiophen-2-yl)-propenone], the EC50 in test [1] worked out at 5.8 nM.
Regarding `CCc1cc(-c2nnc(-c3sc(C)c(CC(C)C)c3C)o2)cc(C)c1OC[C@@H](O)CNC(=O)CO` [Example 109, (S)—N-(3-{2-Ethyl-4-[5-(4-isobutyl-3,5-dimethyl-thiophen-2-yl)-[1,3,4]oxadiazol-2-yl]-6-methyl-phenoxy}-2-hydroxy-propyl)-2-hydroxy-acetamide], the EC50 in test [1] was 0.4 nM.
`Cc1cc(-c2noc(-c3sc(C)c(CC(C)C)c3C)n2)cc(C)c1OCC(O)CNC(=O)CO` (racemic) [Example 50, rac-2-Hydroxy-N-(2-hydroxy-3-{4-[5-(4-isobutyl-3,5-dimethyl-thiophen-2-yl)-[1,2,4]oxadiazol-3-yl]-2,6-dimethyl-phenoxy}-propyl)acetamide]: the EC50 in test [1] came out at 2.1 nM. Moreover, the Lymphocyte counts with circulating lymphocytes is −93 ± 1.
